Source: article PMC11117691, “Flipping the GPCR Switch: Structure-Based Development of Selective Cannabinoid Receptor 2 Inverse Agonists” (ACS Central Science, 2024)
pEC50, pKd, pKi: −log10 of the molar value.

Legend:
hCB2R [1] = molecular target: T1, hCB2R (Homo sapiens, UniProt P34972); assay: Radioligand binding assay with [3H]-CP55,940; set-up: expressed in transfected cells; conditions: [3H]-CP55,940 competition, CHO-hCB2R membranes, 2 h at 30 °C
Method: For bindings experiments CHO cells stably expressing the human CB2R were used.14 […]
Radioligand binding assays were performed with [3H]-CP55,940 (Perkin Elmer, Austria) .
Membrane preparation was carried out according to previously published protocols.15 Briefly, competition binding experiments were carried out in duplicates at a final volume of 300 µL containing binding buffer (50 mM Tris-HCl, 2.5mM EDTA, 5 mM MgCl2, 0.5 mg/mL fatty acid-free BSA; pH 7.4), [3H]-CP55,940 (0.3 nM final concentration), compounds (semi logarithmically -spaced concentrations ranging from 0.1 nM to 10 µM) and membranes (2 µg/assay) in silanized glass vials. The reaction mixture was incubated for 2 h at 30 °C. Nonspecific binding was determined in the presence of AM630 (10 µM). Bound radioligand was separated from free radioligand by rapid filtration using 0.1% polyethlyenimine -presoaked GF/C glass fiber filter and a Skatron cell harvester. The radioactivity retained on the filters was measured by liquid scintillation. IC 50 and Ki values obtained from radioligand competition binding assays were determined by fitting the data to a three-parameter logistic Hill equation and applying the Cheng and Prusoff approximation. Data were normalized to specific binding of [3H]-CP55,940 in absence of compounds as maximum percentage (100%), which refers to an average of 4500 -5000 fmoles/mg protein for CB2R. […]

hCB2R [2] = molecular target: T1, hCB2R; assay: BRET Gi-CASE G protein recruitment membrane assay; type: biochemical; set-up: expressed in transfected cells; host or cells: HEK293-TR cells, tetracycline-induced; membrane preparations; conditions: hCB2R-HEK293 T-REx membranes, mean N = 3–4; read-out: pEC50 (Gi-CASE G protein recruitment) (converted)
hCB2R [3] = molecular target: T1, hCB2R; assay: TR-FRET kinetic binding assay at CB2R; set-up: expressed in transfected cells; host or cells: HEK293-TR cells, tetracycline-induced; membrane preparations; conditions: for ΔΔG (Experimental): (R)-3 in comparison to (S)-3, from experimental Kd values
hCB2R [4] = molecular target: T1, hCB2R; assay: TR-FRET saturation binding assay at CB2R; set-up: expressed in transfected cells; host or cells: HEK293-TR cells, tetracycline-induced; membrane preparations; conditions: TR-FRET, room temperature, HEK293 membranes of SNAP-Lumi4-Tb labeled hCB2R
hCB2R [5] = molecular target: T1, hCB2R; assay: cAMP HTRF assay in hCB2R-CHO cells; type: cell-based; set-up: expressed in transfected cells
Text: One of the canonical signaling pathways of CB2R involves association with Gαi/o proteins, which elicit reversible inhibition of adenylyl cyclase resulting in a decrease of cellular cAMP levels and suppression of protein kinase A activity.[67] Consequently, we have investigated the change in cAMP levels upon probe addition using homogeneous time-resolved fluorescence (HTRF) cAMP assay (Table 3).
Homogeneous Time-Resolved Fluorescence (HTRF) cAMP assay
The homogeneous time-resolved fluorescence (HTRF) cAMP assay was conducted according to the manufacturer’s protocol for the cAMP-Gs Dynamic kit (Cisbio). Briefly, the CHO cell line stably overexpressing CB2R was maintained in Ham’s F12 supplemented with 10% FBS, penicillin (100 U/mL, Gibco-ThermoFisher), streptomycin (100 μg/mL, Gibco-ThermoFisher) and G418 (400 μg/mL, ThermoFisher). For CB2R compounds test, the cells were harvested with Cell Dissociation Buffer, resuspended in F-12 K at 0.4×10^6 cells/mL, and dispensed into 384-well low volume plates at 2000 cells/5 μL per well. The cells were stimulated with compounds diluted in Stimulation Buffer (2.5 μL/well) for 15 min at room temperature, followed by the addition of forsklin (2.5 μL 25 μM). After 15 mins incubation, reactions were stopped by 5 μL/well cAMP-d2 conjugate working solution followed by 5 μL/well of anti-cAMP cryptate working solution. After incubation for 1 h at room temperature, the plates were read in a PerkinElmer Envision reader for Time-Resolved Förster Resonance Energy Transfer (TR-FRET) at 620 nm and 665 nm.
β–arrestin recruitment assay
SNAP-tagged human CB2R HEK293-TR cells were maintained in a humidified environment at 37 °C and 5% CO2 in Dulbecco’s modified Eagle’s medium (DMEM) with 10% fetal bovine serum (FBS) containing blasticidin (5 µg/mL; Invitrogen) and (Zeocin; 20 µg/mL; Invitrogen). For receptor-inducible expression, cells were seeded into t175 cm2 flasks, grown to 70% confluence and DMEM containing 1 µg/ml tetracycline added.
HEK293TR-CB2R-nLuc cells expressing a fluorescently labelled β-arrestin protein were maintained in a humidified environment at 37 °C and 5% CO2 in Dulbecco’s modified Eagle’s medium (DMEM) with 10% fetal bovine serum (FBS) containing blasticidin (5 µg/mL; Invitrogen), Zeocin (20 µg/mL; Invitrogen) and G418 (0.2 mg/mL; Invitrogen) and used to assess compound stimulated β-arrestin recruitment to the human CB2R. Cultured cells were harvested upon reaching 70% confluency and plated at a seeding density of 50,000 cells per well. The cells were grown for 48 h until they reached confluency and then stimulated with 1 μg/mL tetracycline for a further 48 h to induce CB2R expression. Cell culture media was then aspirated from the wells and the cells were washed with assay buffer, 100 μL/well HBSS containing 0.5% BSA and 5 mM

hCB2R [6] = molecular target: T1, hCB2R; type: cell-based; set-up: expressed in transfected cells; host or cells: HEK293TR cells, tetracycline-induced, live cells; conditions: HEK293TR-CB2R-nLuc cells, representative of N = 3
Method: HEPES. Following the wash, assay buffer containing 10 μM furimazine, 90 μL/well was added
to the wells. The plate was then incubated at 37 °C for 15 minutes to allow the nanoLuc substrate
furimazine to enter the cells. Three BRET cycles of 1-minute intervals were performed to assess
basal BRET levels, following which 10 μL of each compound, diluted in assay buffer was added
to the assay plate, which was read at 1-minute intervals for 30 minutes.
Buffer containing 10% DMSO (1% final) served as the vehicle control and
The assay buffer used to profile compounds in the CB 2R Gi-CASE system consisted of HBSS
containing 0.02% pluronic F127, 0.5% BSA and 5 mM HEPES. The reference compounds HU -
polypropylene plate. 0.5 µL of the reference and test compound serial dilutions was then added to
a white 384 well OptiplateTM (PerkinElmer) containing 39.5 μL of assay buff er. Finally, the CB 2R
membranes containing the G i-CASE biosensor were thawed and added into assay buffer containing
50 µM furimazine. Membranes (10 μL) were added to the assay plate at a final concentration of 5
µg/well. The total assay volume was 50 µL.

[7] = 37 °C, hCB2R-HEK293 membranes, mean N = 3

T1 sequence (P34972 whole entry): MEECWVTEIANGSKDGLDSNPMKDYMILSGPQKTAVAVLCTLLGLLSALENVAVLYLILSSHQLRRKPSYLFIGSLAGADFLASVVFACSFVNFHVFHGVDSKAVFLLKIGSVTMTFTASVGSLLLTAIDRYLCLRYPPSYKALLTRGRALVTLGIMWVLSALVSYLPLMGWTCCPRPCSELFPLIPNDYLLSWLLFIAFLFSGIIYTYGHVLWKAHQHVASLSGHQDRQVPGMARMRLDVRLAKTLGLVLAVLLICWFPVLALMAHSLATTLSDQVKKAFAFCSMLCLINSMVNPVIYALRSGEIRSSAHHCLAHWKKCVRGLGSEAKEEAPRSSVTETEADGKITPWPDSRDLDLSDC

C#CCCC(=O)NCC1=CC(c2c(OC)cc(C(C)(C)C(CCCCCN=[N+]=[N-])c3ccccc3)cc2OC)C2CC1C2(C)C [(R)-3]
pKi (hCB2R [1]): 9.18
EC50 (hCB2R [2]): 60.3 nM
koff (hCB2R [3]; [7]): 2.29 10^–2 min^–1
kon (hCB2R [3]; [7]): 88.7 10^6 M^–1 min^–1
τ (receptor residence time) (hCB2R [3]; [7]): 43.7 min
ΔΔG (Experimental) (hCB2R [3]): -0.9 kcal/mol
ΔΔG (Experimental) (hCB2R [3]; listed as (R)–3): –0.90 kcal mol-1
pKd (hCB2R [3]; kinetic Kd, 37 °C, hCB2R-HEK293 membranes, mean N = 3): 9.59
ΔG (Experimental) (hCB2R [3]; ΔG exp = RT ln(Kd), T = 310 K, from experimental Kd values): –13.6 kcal mol-1
pKd (hCB2R [4]): 9.38
pEC50 (hCB2R [5]; hCB2R-CHO cells, forskolin stimulated, mean N = 3): 7.48
Emax (cAMP) (hCB2R [5]; normalized to agonist CP-55,940 response (100%) and basal level (0%)): –55%
β-arrestin recruitment (BRET signal) (hCB2R [6]): Baseline BRET signal was retained
